The NIST ThermoML archive (doi:10.1021/je1009976)
Numbers after ± are expanded uncertainties.

Assay: xn = mol fraction of the nth substance listed
Settings: 101 kPa, Liquid; for mass density: Pycnometric method; for viscosity: Capillary tube (Ostwald / Ubbelohde) method

OCCOCCO [diethylene glycol] + O
Settings | mass density, 313.15 K [kg/m3] | mass density, 318.15 K [kg/m3] | mass density, 323.15 K [kg/m3] | viscosity, 318.15 K [mPa·s] | viscosity, 323.15 K [mPa·s]
x1 = 0.05006 | 1023.67 ± 0.49 | 1021.08 ± 0.51 | 1018.36 ± 0.9 | 1.091 ± 0.4 | 0.985 ± 0.4
x1 = 0.1016 | 1046.02 ± 0.54 | 1043.03 ± 0.55 | 1039.94 ± 0.79 | 1.729 ± 0.4 | 1.535 ± 0.4
x1 = 0.1512 | 1062.04 ± 0.58 | 1058.72 ± 0.6 | 1055.2 ± 0.86 | 2.459 ± 0.4 | 2.161 ± 0.4
x1 = 0.2012 | 1071.77 ± 0.61 | 1068.24 ± 0.63 | 1064.5 ± 0.68 | 3.286 ± 0.4 | 2.846 ± 0.4
x1 = 0.2477 | 1079.42 ± 0.62 | 1075.76 ± 0.63 | 1072.18 ± 0.74 | 4.052 ± 0.4 | 3.506 ± 0.4
x1 = 0.298 | 1084.97 ± 0.61 | 1081.58 ± 0.65 | 1077.47 ± 0.77 | 4.962 ± 0.4 | 4.252 ± 0.4
x1 = 0.3505 | 1088.68 ± 0.65 | 1084.97 ± 0.65 | 1081.16 ± 0.72 | 5.768 ± 0.4 | 4.929 ± 0.4
x1 = 0.4483 | 1093.68 ± 0.67 | 1089.91 ± 0.67 | 1086.1 ± 0.75 | 7.148 ± 0.4 | 6.071 ± 0.4
x1 = 0.5421 | 1096.37 ± 0.65 | 1092.91 ± 0.67 | 1088.98 ± 0.73 | 8.478 ± 0.41 | 7.143 ± 0.41
x1 = 0.6518 | 1098.97 ± 0.67 | 1095.29 ± 0.7 | 1091.34 ± 0.73 | 9.672 ± 0.41 | 8.114 ± 0.41
x1 = 0.7525 | 1100.25 ± 0.7 | 1096.58 ± 0.68 | 1093.18 ± 0.7 | 10.65 ± 0.41 | 8.937 ± 0.41
x1 = 0.7864 | 1100.56 ± 0.7 | 1096.89 ± 0.7 | 1093.37 ± 0.69 | 10.96 ± 0.41 | 9.19 ± 0.41
x1 = 0.8499 | 1101.32 ± 0.71 | 1097.62 ± 0.72 | 1093.91 ± 0.74 | 11.42 ± 0.41 | 9.461 ± 0.41
x1 = 0.9005 | 1101.55 ± 0.72 | 1097.87 ± 0.73 | 1094.19 ± 0.74 | 11.69 ± 0.41 | 9.799 ± 0.41
x1 = 0.9503 | 1101.98 ± 0.74 | 1098.33 ± 0.75 | 1094.55 ± 0.76 | 11.92 ± 0.42 | 9.999 ± 0.41
x1 = 1 | 1102.11 ± 0.76 | 1098.35 ± 0.76 | 1094.94 ± 0.75 | 12.19 ± 0.42 | 10.19 ± 0.41
